Laboratory results published in patent US20030130200A1, “Small peptides and methods for treatment of asthma and inflammation” (Hisatek, LLC, priority 1997, published 2003).
“Also recorded” adds a separate entry of the source. Where no end group is shown, it is not given here. The star is where a group is joined. For = O=C*

System: OVA-sensitized/challenged mice
Assay: OVA allergen-induced airway inflammation mouse model, 28-day protocol, HK-X i.n. before challenges on days 25, 26, 27
Assay type: in vivo, mouse (BALB/c)
Excerpt: The above-described murine model reproduces key features of human asthma. Late-phase allergen-specific pulmonary disease was induced in normal BALB/c mice using ovalbumin (OVA) as allergen. One protocol includes immunization of mice with i.p. OVA on days 1 and 14, and intranasal (i.n.) administration of OVA on days 14, 25, 26. and 27.
In a mouse model of allergen-induced airway inflammation, the role of mast cell in airway eosinophil infiltration, mucus release, and hyper-responsiveness to methacholine was examined.
Materials were used as described above. Mice received an i.p. injection of 0.2 ml (100 ug) of OVA complexed with aluminum potassium sulfate (alum) on day 0 and 14. On days 14, 25, 26, and 27, mice were anesthetized with 0.2 ml i.p. of ketamine (0.44 mg/ml)/xylazine (6.3 mg/ml) in normal saline before receiving an intranasal (i.n.) dose of 100 ug OVA in 0.05 ml normal saline on days 25, 26, and 27. Lung tissue was obtained 24 hours after the last i.n. challenge on day 28. The control group received normal saline with alum i.p. on days 0 and 14 and normal saline without alum i.n. on days 14, 25, 26, and 27. To assess the effect of HK-X inhibition on OVA induced asthma, HK-X (10 ug/ml) was given i.n. 30 minutes before each i.n. challenge on days 25, 26, and 27.
After tying off the left lung at the mainstem bronchus, the right lung was […] three times with 0.4 ml of normal saline. Bronchoalveolar lavage (BAL) fluid cells from a 0.05 ml aliquot of the pooled sample wee counted using a hemocytometer and the remaining fluid centrifuged at 4° C. for 10 minutes at 200 g. After resuspension of the cell pellet in normal saline containing 10% BSA, BAL cell smears were made on glass slides. To stain eosinophils, dried slides were stained with Discombe's diluting fluid (0.05% aqueous eosin and 5% (v/v) acetone in distilled water) for 5-8 minutes, rinsed with water for 0.5 minutes and counterstained with […] for 2 minutes
Following BAL, the trachea and left lung (upper and lower lobes) were obtained and fixed in 10% buffered formalin solution at 20° C. forlS hours. After the tissues were processed and embeded in paraffin, the tissues were cut into 5 μm sections and stained with Discombe's solution and counterstained with methylene blue as described above or stained with Hematoxylin and eosin. The eosinophil number per unit airway area (2200 μm^2) was determined by morphometry as previously described. Airway mucus was identified by a variety of staining methods, i.e., methylene blue, Hematoxylin and eosin, mucicarmine, toluidine blue, alcian blue, and alcian blue/periodic acid Schiff (PAS) reaction. […] The degree of mucus plugging of the airways (0.5-0.8 mm in diameter) also was assessed by morphometry. […]

Substance: f-Met-Leu-Phe-Phe (For-MLFF) [Example 9]
- Cellular infiltration during asthmatic attack (histopathology) (10 μg HK-X intranasally 30 minutes prior to challenge, FIG. 9): reduces the cellular infiltration
- Eosinophil influx into the lung tissue and BAL fluid (OVA sensitized/challenged mice, FIGS. 8A, 9A, 10A): markedly reduced
- Airway mucus release / secretion (OVA sensitized/challenged mice, histopathology FIGS. 8A, 9A, 10A, listed as HK-X): prevented airway mucus release; also recorded: blocked the airway mucus release; also recorded: prevents the airway mucus secretion; also recorded: reduces the mucus secretion in airways
- Reduction of eosinophil influx into the lung interstitium (morphometric analysis) (p<0.006 compared to OVA without HK-X, FIG. 11): 90%
